Series [1] relates to insulin resistant adipocytes (differentiated 3T3 L1 fibroblasts). The series can be described thus: In vitro model exhibiting insulin resistance: 14C-2-deoxyglucose uptake in dexamethasone-treated adipocytes. In kind it is cell-based. To be noted: test compound 10 μM/mL, Rosiglitazone 0.1 μM. On the procedure: The assay was designed as in reference, British Journal of Pharmacology, 130, 351-58, 2000, the disclosure of which is incorporated by reference for the teaching of the assay. The solution of test compound (10 μM/mL) was prepared in DMSO. […] Differentiation into adipocytes was induced by known methods as described below. (J. Biol. […] 3T3 L1 fibroblasts were seeded in 24- or 6-well plates at a density of 0.5-2×10^4 cells/well and were allowed to reach maximal confluency. The confluent fibroblasts were exposed to culture medium for 2 days. […] The mature adipocytes were exposed to dexamethasone, 100 nM added in ethanol, in culture medium and incubated for 2 days. […] The test compound was also present during this period. After 3-4 hours, the medium was aspirated and replaced with Kreb's Ringer phosphate (KRP) buffer at pH 7.4 and with human/porcine insulin, 200 nM. The cells were incubated for 30 minutes at 37° C. […] After exactly 5 minutes, the plates were transferred to ice trays and medium was rapidly aspirated. The cell layer was washed twice with ice-cold phosphate buffered saline, (PBS), pH 7.4. […] Non-specific glucose uptake was assayed in wells exposed to cytochalasin B, inhibitor of glucose transport. […] Statistical analysis was performed using unpaired t-test.

Series [2] has as its system diet induced obese (DIO) C57Bl6/J mice. The series can be described thus: Evaluation of antiobesity, chronic study: diet induced obese mice. It counts as in vivo. To be noted: 200 mg/kg intraperitoneally, 10 days of treatment. On the procedure:
Diet induced obese (DIO) mice were treated with either standard (Sibutramine) or Compound 1 for 10 days.
Cumulative body weight gain of diet induced obese (DIO) mice treated with either standard (Sibutramine) or Compound 1 for 10 days is indicated.
The assay was designed as in the reference, British Journal of Pharmacology, 132, 1898-1904, 2001, the disclosure of which is incorporated by reference for the teaching of the assay. Male C57Bl6/J mice (3-4 weeks of age) were housed in groups of 10 animals per cage in the animal facility. High fat diet (D12451 Research Diets Inc., New Brunswick, N.J. 08901, USA), 45% kcal from fat) and water were provided ad libitum for 14 weeks. After this period, the animals were housed individually in cages. The animals were weighed and separated into groups with similar body weight. They were acclimatized to the experimental procedures for 2 days Animals were dosed intraperitoneally with test compound (200 mg/kg) or the standard (Sibutramine, 3 mg/kg) in 10 ml/kg of 0.5% CMC vehicle between 10:00 h-12:00 h. After drug administration the animals were presented with a pre-weighed amount of food in the food cup. Weight of feed remaining in the cup and body weight were recorded daily just prior to dosing. The change in weight and cumulative food intake were computed. The results are indicated in FIG. 2 and FIG. 3. • Conclusions: 1. […]

The source of these data is patent publication US8349862B2, “Pyridine derivatives for the treatment of metabolic disorders related to insulin resistance or hyperglycemia” (Piramal Healthcare Limited, priority 2006, dated 2013).

`CC(=O)N1CCN(c2ccc(Oc3ncc(NS(=O)(=O)c4ccc(Cl)cc4Cl)cc3Cl)cc2)CC1` [Compound 1, N-(6-(4-(4-Acetylpiperazin-1-yl)phenoxy)-5-chloropyridin-3-yl)-2,4-dichlorobenzene-sulfonamide] had a melting point of 215 to 216 °C. The “% of Rosiglitazone (comparison with Rosiglitazone, glucose uptake)” value in series [1] worked out at 61.4%. Also, the “Fold Vehicle (fold activity over vehicle, glucose uptake)” value in series [1] (vehicle = 1.0, cut off for activity 1.50 fold) is given as 2.10 ± 0.05. In series [2], the “Cumulative body weight gain” value is “effective in reducing cumulative body weight gain” and the Cumulative food intake result is “effective in reducing cumulative food intake”.

By melting point is commonly meant the temperature, or range, at which the solid turns liquid.
